According to PubChem BioAssay (NCI):
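Where inhibition never reached the appropriate level, the endpoint shown equals the highest concentration tested. Otherwise, values were interpolated linearly from a five-concentration, 48-hour dose response in 96-well plates. TGI: concentration producing complete growth inhibition.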

Columns and labels:
Test in all cases: growth of human tumour cells (NCI), 48 h
[1] = test system: 786-0 renal
[2] = test system: ACHN renal
[3] = test system: DU-145 prostate
[4] = test system: HCC-2998 colon
[5] = test system: HCT-116 colon
[6] = test system: HOP-92 NSCLC
[7] = test system: HT29 colon
[8] = test system: LOX IMVI melanoma
[9] = test system: M14 melanoma
[10] = test system: MDA-MB-231 breast
[11] = test system: MDA-MB-435
[12] = test system: NCI-H460 lung
[13] = test system: NCI-H522 lung
[14] = test system: OVCAR-4 ovarian
[15] = test system: OVCAR-5 ovarian
[16] = test system: SF-295 CNS
[17] = test system: SK-MEL-2 melanoma
[18] = test system: SNB-19 CNS
[19] = test system: SNB-75 CNS
[20] = test system: SW-620 colon

Structure (SMILES) | TGI [1] [µM] | TGI [2] [µM] | TGI [3] [µM] | TGI [4] [µM] | TGI [5] [µM] | TGI [6] [µM] | TGI [7] [µM] | TGI [8] [µM] | TGI [9] [µM] | TGI [10] [µM] | TGI [11] [µM] | TGI [12] [µM] | TGI [13] [µM] | TGI [14] [µM] | TGI [15] [µM] | TGI [16] [µM] | TGI [17] [µM] | TGI [18] [µM] | TGI [19] [µM] | TGI [20] [µM]
Cc1sc2[nH]c(=O)oc(=O)c2c1C | > 100 | > 100 | > 100 | > 100 | > 100 | > 100 | > 100 | > 100 | > 100 | > 100 | > 100 | > 100 | > 83.1 | > 100 | > 100 | > 100 | > 100 | > 100 | > 100 | > 100
O=c1ccn(CC2(CO)CCCC2)c(=O)[nH]1 | > 100 | > 100 | > 100 | > 100 | > 100 | > 100 | > 100 | > 100 | – | > 100 | > 100 | > 100 | > 100 | > 100 | > 100 | > 100 | > 100 | – | > 100 | > 100
NC(=O)C(=O)c1ncn(Cc2ccccc2)c1N | > 100 | > 100 | > 100 | > 100 | > 100 | – | > 100 | > 100 | > 100 | > 100 | > 100 | > 100 | > 100 | > 100 | > 100 | > 100 | > 100 | > 100 | > 100 | > 100
CC(C)C1OC(N)=C(C#N)C1(C#N)C#N (stereo not given) | > 100 | > 100 | > 100 | 58 | > 100 | > 100 | > 100 | > 100 | > 100 | > 100 | > 100 | – | > 100 | – | > 100 | > 100 | > 100 | > 100 | > 100 | > 100
O=C(NC(Cl)(C(F)(F)F)C(F)(F)F)c1ccc(F)cc1 | > 100 | > 100 | > 100 | > 100 | > 100 | > 100 | > 100 | > 100 | > 100 | > 100 | > 100 | > 100 | – | > 100 | > 100 | > 100 | > 100 | > 100 | 91.6 | > 100
O=C1NC(=S)N/C1=C\c1cc2c(=O)c3ccccc3sc2s1 | > 100 | > 100 | > 100 | > 100 | > 100 | – | > 100 | > 100 | – | > 100 | > 100 | > 100 | > 100 | > 100 | > 100 | > 100 | > 100 | > 100 | 72 | > 100
C[Si](C)(C)C#Cc1cc(-c2nc3ccccc3s2)ccc1N | 30.7 | 29.1 | 62.1 | – | 26.6 | 27.8 | 38.6 | 34 | 31 | 38 | 34.1 | 31.1 | 27.3 | 29.8 | 33.5 | 33.7 | – | 34.6 | 27.5 | 35
C=C1CCCC2[C@](C)(CC3=C(Cl)C(=O)C=C(OC)C3=O)C(C)CC[C@]12C (stereo not given in full) | 6.53 | 10.7 | 15.2 | 23.9 | 6.43 | 14.7 | 7.37 | 4.23 | 10.3 | 16.9 | 14.2 | 19.4 | 3.18 | 14.2 | 9 | 14 | 13.5 | 13.9 | – | 10.4
COc1cc(/C=C2/SC(c3ccccc3)N(Cc3ccccc3)C2=O)cc(OC)c1OC (stereo not given) | > 100 | > 100 | > 100 | > 100 | > 100 | > 100 | > 100 | > 100 | > 100 | > 100 | > 100 | > 100 | 63 | > 100 | > 100 | > 100 | > 100 | > 100 | – | > 100
CCN(CC)CCC(=O)c1ccc(Sc2ccc(F)cc2)cc1 | 23.6 | 33.2 | 36.1 | 89.6 | 33.6 | – | 85.2 | 37.2 | 54.6 | 34 | 32.4 | 41.1 | 35.8 | 42.9 | 39.3 | 35.1 | 45.1 | 34 | 32.2 | 41.2
N#CC(N)c1ccc(OCCCCCCCCCCOc2ccc(C(N)C#N)cc2)cc1 (stereo not given) | > 100 | > 100 | > 100 | > 100 | > 100 | > 100 | > 100 | > 100 | > 100 | > 100 | > 100 | > 100 | > 100 | > 100 | > 100 | > 100 | > 100 | > 100 | – | > 100
O=C1C(C(O)(C(F)(F)Cl)C(F)(F)Cl)CCCC1C(O)(C(F)(F)Cl)C(F)(F)Cl (stereo not given) | > 10 | > 10 | > 10 | > 10 | > 10 | > 10 | > 10 | > 10 | > 10 | > 10 | > 10 | > 10 | > 10 | > 10 | > 10 | > 10 | > 10 | > 10 | – | > 10
